The assay deals with virus-infected cells, CPE inhibition, dose response. Briefly: PubChem AID 806. Conditions: for EC90: measured here: EC90 CPE inhibition; for CC50: measured here: cytotoxicity, cell viability IC50.

We go through 39 compounds from PubChem BioAssay AID806 (SRMLSC, 2007).

Each structure is given as a SMILES string. Active and inactive are the calls of the source. No rule for the calls is given here.

Regarding `COc1ccc(S(=O)(=O)Nc2ccc(C)cc2)cc1N(C)S(=O)(=O)c1ccc(Cl)cc1`, the EC50 (in general, the concentration needed to bring the measured effect to its halfway point) was > 60 µM (inactive); the EC90 (in general, the concentration at which the effect reaches the 90% level) was > 60 µM; the 50% cytotoxic concentration (CC50) (usually the concentration giving 50% cytotoxicity) was > 60 µM.

Regarding `O=C(C1CCCCN1S(=O)(=O)c1ccccc1)N1CCN(Cc2ccccc2)CC1` (configuration not stated), the EC50 is > 60 µM (inactive), the EC90 was > 60 µM and the CC50 was > 60 µM.

With `COc1ccccc1CNC(=O)c1c(O)c2cc(OC)c(OC)cc2[nH]c1=O`, the EC50 was > 60 µM (inactive), the EC90 is > 60 µM and the CC50 was > 60 µM.

In the case of `O=C(Nc1cccc2ncccc12)c1cc2ccccc2o1`, the EC50 was > 60 µM (inactive), the 90% effect concentration (EC90) was > 60 µM and the 50% cytotoxic concentration (CC50) was > 60 µM.

Take `O=C(Nc1ccc(Cl)cn1)c1cc2ccccc2o1`: the EC50 was > 60 µM (inactive), the EC90 is > 60 µM and the cytotoxic concentration (CC50) is > 60 µM.

`O=Nc1c(O)n(Cc2cccc(Cl)c2)c2ccccc12`: the EC50 is > 60 µM (inactive), the EC90 is > 60 µM and the CC50 is > 60 µM.

Take `COCc1cc(=O)n2c(-c3ccc(C)cc3)n[nH]c2n1`: the EC50 was > 60 µM (inactive), the EC90 was > 60 µM and the cytotoxic concentration (CC50) is > 60 µM.

Consider `CCOc1ncccc1C(=O)NCc1ccc(OC)cc1`, for which the EC50 was > 60 µM (inactive), the EC90 was > 60 µM and the CC50 was > 60 µM.

For the compound `O=C(Nc1nc(-c2ccccc2)cs1)C1CCCCN1S(=O)(=O)c1ccccc1` (configuration not stated), the EC50 was > 60 µM (inactive), the EC90 is > 60 µM and the CC50 was > 60 µM.

Consider `CCN(c1ccccc1)c1ncnc2c1cnn2-c1ccccc1`, for which the EC50 was > 60 µM (inactive), the EC90 is > 60 µM and the CC50 is > 60 µM.

Consider `CCC(C)(C)NC(=O)C(c1cccnc1)N(CCOC)C(=O)Cn1nnc2ccccc21` (configuration not stated), for which the EC50 was > 60 µM (inactive), the concentration for an effect of 90% (EC90) is > 60 µM and the CC50 was > 60 µM.

Consider `CCCCN(C(=O)Cn1nnc2ccccc21)C(C(=O)NCCOC)c1ccc(OC)cc1OC` (configuration not stated), for which the EC50 is > 60 µM (inactive), the EC90 is > 60 µM and the cytotoxic concentration (CC50) was > 60 µM.

Take `COCCNC(=O)c1noc2c1CCc1cc(OC)ccc1-2`: the EC50 is > 60 µM (inactive), the EC90 is > 60 µM and the CC50 was > 60 µM.

Regarding `Cc1cc2oc(C(=O)Nc3cccnc3)c(C)c2cc1C`, the EC50 was > 60 µM (inactive), the EC90 was > 60 µM and the CC50 was > 60 µM.

On to `CCOc1ccccc1NC(=O)C1CCCCN1S(=O)(=O)c1ccc(F)cc1` (configuration not stated), for which the EC50 was > 60 µM (inactive), the EC90 was > 60 µM and the CC50 is > 60 µM.

As for `COCCCNC(=O)C1CCCCN1S(=O)(=O)c1ccc(F)cc1` (configuration not stated), the EC50 is > 60 µM (inactive), the EC90 is > 60 µM and the CC50 was > 60 µM.

With `O=C(NCC1CCCO1)C1CCCCN1S(=O)(=O)c1ccc(F)cc1` (configuration not stated), the EC50 was > 60 µM (inactive), the EC90 was > 60 µM and the CC50 was > 60 µM.

For the compound `CCOC(=O)CN(C(=O)Cn1nnc2ccccc21)C(C(=O)NCCOC)c1ccccc1` (configuration not stated), the EC50 is > 60 µM (inactive), the EC90 is > 60 µM and the CC50 is > 60 µM.

Consider `Cc1ccc(C2NC(=O)NC3=C2CCc2ccccc23)cc1` (configuration not stated), for which the EC50 is 1.75 µM, the EC90 is > 60 µM and the cytotoxic concentration (CC50) was > 60 µM.

Take `Cc1cccc(C)c1NC(=O)CCS(=O)(=O)c1cccc2nsnc12`: the EC50 is > 60 µM (inactive), the EC90 is > 60 µM and the CC50 is > 60 µM.

As for `O=C(c1cnn2c(C(F)F)cc(-c3ccccc3)nc12)N1CCOCC1`, the EC50 is > 60 µM (inactive), the EC90 is > 60 µM and the cytotoxic concentration (CC50) was > 60 µM.

With `O=C(O)c1cccc(Nc2ncnc3c2cnn3-c2ccccc2)c1`, the EC50 is > 60 µM (inactive), the concentration for an effect of 90% (EC90) was > 60 µM and the half-maximal cytotoxic concentration (CC50) was > 60 µM.

Consider `Cc1ccc(S(=O)(=O)N2CCCCC2C(=O)N2CCN(C)CC2)cc1` (configuration not stated), for which the EC50 was > 60 µM (inactive), the EC90 was > 60 µM and the CC50 is > 60 µM.

On to `CN(C)S(=O)(=O)c1ccc(C(=O)NCc2ccccc2)cc1`, for which the EC50 is > 60 µM (inactive), the EC90 was > 60 µM and the cytotoxic concentration (CC50) was > 60 µM.

Take `CCCCN(C(=O)Cn1nnc2ccccc21)C(C(=O)NCc1ccco1)c1ccncc1` (configuration not stated): the EC50 is > 60 µM (inactive), the EC90 is > 60 µM and the CC50 is > 60 µM.

As to `Cc1ccc(NC(=S)C2=C(O)c3sccc3N(C)S2(=O)=O)cc1`, the EC50 was 30.3 µM (inactive), the EC90 was > 60 µM and the CC50 is > 60 µM.

For the compound `O=C(COc1ccccc1)N(Cc1ccco1)c1ccc(O)cc1`, the EC50 was > 60 µM (inactive), the EC90 was > 60 µM and the cytotoxic concentration (CC50) was > 60 µM.

Regarding `CC(=O)Nc1ccc(Nc2ncnc3c2cnn3-c2ccc(C)cc2C)cc1`, the EC50 was > 60 µM (inactive), the EC90 is > 60 µM and the CC50 was > 60 µM.

Take `CCC(=O)N1CCn2c1nc1ccccc12`: the EC50 was > 60 µM (inactive), the EC90 is > 60 µM and the CC50 is > 60 µM.

Regarding `CCOC(=O)/C=C1\SCC(=O)N1CC(=O)NC(C)C`, the EC50 was > 60 µM (inactive), the EC90 is > 60 µM and the CC50 was > 60 µM.

Regarding `CCOc1ccccc1Nc1ncnc2c1cnn2-c1ccccc1`, the EC50 was > 60 µM (inactive), the EC90 is > 60 µM and the CC50 was > 60 µM.

`O=C(CSc1ccc2nnc(-c3ccccn3)n2n1)NCc1ccco1`: the EC50 was > 60 µM (inactive), the EC90 is > 60 µM and the CC50 was > 60 µM.

On to `CCOC(=O)CN(C(=O)Cn1nnc2ccccc21)C(C(=O)NCCOC)c1ccccc1C` (configuration not stated), for which the EC50 was > 60 µM (inactive), the EC90 is > 60 µM and the CC50 was > 60 µM.

For the compound `Cc1cc2cc(CNC(=O)c3ccc(S(=O)(=O)N(C)C)cc3)ccc2n1C`, the EC50 was > 60 µM (inactive), the 90% effect concentration (EC90) is > 60 µM and the CC50 was > 60 µM.

As for `COC(=O)c1ccc(CN(C(C)=O)c2ccccc2)o1`, the EC50 is > 60 µM (inactive), the EC90 is > 60 µM and the CC50 is > 60 µM.

As to `O=C(Nc1ccc2nc3n(c(=O)c2c1)CCCCC3)c1ccccc1Cl`, the EC50 is > 60 µM (inactive), the EC90 is > 60 µM and the CC50 is > 60 µM.

Regarding `COc1ccc(OC)c(Nc2ncnc3c2cnn3-c2ccccc2)c1`, the EC50 was > 60 µM (inactive), the 90% effect concentration (EC90) was > 60 µM and the CC50 was > 60 µM.

Consider `CC(C)NC(=O)CSc1nnc2sc3ccccc3n12`, for which the EC50 was > 60 µM (inactive), the 90% effect concentration (EC90) is > 60 µM and the CC50 was > 60 µM.

With `Cc1ccc(-c2nnc3ccc(SCC(=O)NCc4ccco4)nn23)cc1`, the EC50 was > 60 µM (inactive), the EC90 was > 60 µM and the CC50 is > 60 µM.
